# Measured values taken from patent US20040006041A1, “Aqueous fludarabine phosphate composition” (priority 2002, published 2004).
# Experiments:
# Assay type in all cases: physicochemical
# [1] = Effect of pH on formation of related compounds, aqueous composition stored at 27.5° C. for 7 months
# Experimental: (§1) The effect of the pH of the aqueous fludarabine phosphate composition on the stability of the compositions at elevated temperatures also is shown in Tables 2 and 3. The concentration of fludarabine phosphate in each of the compositions of Tables 2 and 3 was 25 mg/mL.
# [2] = Effect of pH on formation of related compounds, aqueous compositions stored at 40° C. for 1 month
# Experimental: The effect of the pH of the aqueous fludarabine phosphate composition on the stability of the compositions at elevated temperatures is shown in the following table. The concentration of fludarabine phosphate in each of the compositions of Table 1 was 25 mg/mL.
# Its level of “total related compounds” was 0.1%. In contrast, after being stored for 1 months at 40° C., the fludarabine phosphate composition having a pH of 7.7 contained 0.8 of FP-2HA and 1.3% “total related compounds.”
# [3] = Effect of pH on formation of related compounds, aqueous composition stored at 40° C. for 1 month followed by one-year storage at 2-8° C.; conditions: 25 mg/mL, 40° C. 1 month then one year 2-8° C.
# Experimental: as §1
# [4] = pH 5.5, 25 mg/mL aqueous composition
# [5] = pH 6.5, 25 mg/mL aqueous composition
# [6] = pH 7.7, 25 mg/mL aqueous composition
# [7] = pH 8.1, 25 mg/mL aqueous composition
substance,measurement,setting,value
Fludarabine phosphate,"Concentration of FP-2HA, %","[1]; pH 6.8, 25 mg/mL",0.33%
same,"Single Largest Other, %","[1]; pH 6.8, 25 mg/mL",0.1%
same,"Total Related Compounds*, % (excluding fludarabine)","[1]; pH 6.8, 25 mg/mL",0.43%
same,"Concentration of FP-2HA, %","[1]; pH 7.2, 25 mg/mL",0.54%
same,"Single Largest Other, %","[1]; pH 7.2, 25 mg/mL",0.1%
same,"Total Related Compounds*, % (excluding fludarabine)","[1]; pH 7.2, 25 mg/mL",0.94%
same,"Concentration of FP-2HA, %",[2]; [4],<LOQ
same,"Total Related Compounds*, % (excluding fludarabine)",[2]; [4],0.1%
same,"Concentration of FP-2HA, %",[2]; [5],<LOQ
same,"Total Related Compounds*, % (excluding fludarabine)",[2]; [5],0.2%
same,"Concentration of FP-2HA, %",[2]; [6],0.8%
same,"Total Related Compounds*, % (excluding fludarabine)",[2]; [6],1.3%
same,"Concentration of FP-2HA, %",[2]; [7],1.0%
same,"Total Related Compounds*, % (excluding fludarabine)",[2]; [7],2.2%
same,"Concentration of FP-2HA, %",[3]; pH 6.0,0.4%
same,"Single Largest Other, %",[3]; pH 6.0,0.09%
same,"Total Related Compounds*, % (excluding fludarabine)",[3]; pH 6.0,0.5%
same,"Concentration of FP-2HA, %",[3]; pH 7.0,0.32%
same,"Single Largest Other, %",[3]; pH 7.0,0.1%
same,"Total Related Compounds*, % (excluding fludarabine)",[3]; pH 7.0,0.34%
same,"Concentration of FP-2HA, %",[3]; pH 7.6,0.56%
same,"Single Largest Other, %",[3]; pH 7.6,0.2%
same,"Total Related Compounds*, % (excluding fludarabine)",[3]; pH 7.6,1.1%
same,"Concentration of FP-2HA, %",[3]; pH 8.1,0.93%
same,"Single Largest Other, %",[3]; pH 8.1,0.4%
same,"Total Related Compounds*, % (excluding fludarabine)",[3]; pH 8.1,2.0%
